From PubChem BioAssay AID248 (DTP/NCI, 2004)
Several values for one entry are separate records, joined by “and”; a condition that tells them apart may be missing. Equal entries are not always repeated. Toxic doses and inconclusive results are not listed. Rule as the data show it: active = T/C of 150% or more; inactive = T/C below 125%.

Tested on: L1210 leukemia ip in BDF1 mice, survival T/C
Experiment: NCI In Vivo Anticancer Drug Screen. Data for tumor model L1210 Leukemia (intraperitoneal) in B6D2F1 (BDF1) mice
Settings: endpoint: mean survival time, higher = longer survival
Outline: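 Each compound was tested against a transplantable tumor grown in mice. The endpoint was survival, with treated animals benchmarked against vehicle controls as a simple ratio.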

[1] = dose: 100.0 mg/kg/injection, schedule: Q01DX009 (ip), vehicle: Klucel (hydroxypropylcellulose) (HPC)
[2] = dose: 100.0 mg/kg/injection, schedule: Q04DX003 (ip), vehicle: Klucel (hydroxypropylcellulose) (HPC)
[3] = dose: 200.0 mg/kg/injection, schedule: Q04DX003 (ip), vehicle: Klucel (hydroxypropylcellulose) (HPC)
[4] = dose: 400.0 mg/kg/injection, schedule: Q04DX003 (ip), vehicle: Klucel (hydroxypropylcellulose) (HPC)
[5] = dose: 400.0 mg/kg/injection, schedule: Q04DX002 (ip), vehicle: saline with Tween-80
[6] = dose: 100.0 mg/kg/injection, schedule: Q01DX001 (ip), vehicle: saline with Tween-80
[7] = dose: 100.0 mg/kg/injection, schedule: Q04DX003 (ip), vehicle: saline with Tween-80
[8] = dose: 200.0 mg/kg/injection, schedule: Q01DX001 (ip), vehicle: saline with Tween-80
[9] = dose: 200.0 mg/kg/injection, schedule: Q04DX003 (ip), vehicle: saline with Tween-80
[10] = dose: 400.0 mg/kg/injection, schedule: Q01DX001 (ip), vehicle: saline with Tween-80
[11] = dose: 400.0 mg/kg/injection, schedule: Q04DX003 (ip), vehicle: saline with Tween-80
[12] = dose: 100.0 mg/kg/injection, schedule: Q01DX001 (ip), vehicle: carboxymethylcellulose (CMC)
[13] = dose: 200.0 mg/kg/injection, schedule: Q01DX001 (ip), vehicle: carboxymethylcellulose (CMC)
[14] = dose: 400.0 mg/kg/injection, schedule: Q01DX001 (ip), vehicle: carboxymethylcellulose (CMC)
[15] = dose: 200.0 mg/kg/injection, schedule: Q01DX009 (ip), vehicle: Klucel (hydroxypropylcellulose) (HPC)
[16] = dose: 100.0 mg/kg/injection, schedule: Q01DX009 (ip), vehicle: saline with Tween-80

Measured: T/C

O=C1c2ccccc2C(=O)N1c1cc(O)cc(O)c1
inactive: dose: 100.0 mg/kg/injection, schedule: Q01DX009 (ip), vehicle: water 95 % of control | dose: 100.0 mg/kg/injection, schedule: Q04DX003 (ip), vehicle: water 96 % of control | dose: 200.0 mg/kg/injection, schedule: Q01DX009 (ip), vehicle: water 95 % of control | dose: 200.0 mg/kg/injection, schedule: Q04DX003 (ip), vehicle: water 94 % of control | dose: 400.0 mg/kg/injection, schedule: Q01DX009 (ip), vehicle: water 101 % of control | dose: 400.0 mg/kg/injection, schedule: Q04DX003 (ip), vehicle: water 96 % of control

O=C(O)COc1ccccc1
inactive: dose: 25.0 mg/kg/injection, schedule: Q01DX009 (ip), vehicle: Klucel (hydroxypropylcellulose) (HPC) 108 % of control | dose: 50.0 mg/kg/injection, schedule: Q01DX009 (ip), vehicle: Klucel (hydroxypropylcellulose) (HPC) 105 % of control | [1] 93 % of control and 88 % of control

O=c1[nH]c(=S)[nH]cc1CN(CCO)CCO
inactive: dose: 50.0 mg/kg/injection, schedule: Q01DX001 (ip), vehicle: saline 97 % of control | dose: 100.0 mg/kg/injection, schedule: Q01DX001 (ip), vehicle: saline 90 % of control | dose: 200.0 mg/kg/injection, schedule: Q01DX001 (ip), vehicle: saline 95 % of control

O=C(O)CN(Cc1ccccc1)Cc1ccccc1
inactive: [2] 95 % of control | [3] 98 % of control | [4] 98 % of control

C/C=C/c1ccc(O)c(OC)c1
inactive: dose: 100.0 mg/kg/injection, schedule: Q04DX002 (ip), vehicle: saline with Tween-80 92 % of control | dose: 200.0 mg/kg/injection, schedule: Q04DX002 (ip), vehicle: saline with Tween-80 86 % of control | [5] 86 % of control

CCN(CC)CCNc1c(C)cc(CO)c(Cl)c1C
inactive: dose: 31.25 mg/kg/injection, schedule: Q01DX009 (ip), vehicle: saline 97 % of control | dose: 62.5 mg/kg/injection, schedule: Q01DX009 (ip), vehicle: saline 99 % of control | dose: 125.0 mg/kg/injection, schedule: Q01DX009 (ip), vehicle: saline 97 % of control | dose: 250.0 mg/kg/injection, schedule: Q01DX009 (ip), vehicle: saline 103 % of control

CCC(CO)NC(=O)/C=C/c1ccccc1 (stereo not given)
inactive: [6] 101 % of control | [7] 97 % of control | [8] 94 % of control | [9] 97 % of control | [10] 100 % of control | [11] 91 % of control

[Cl][Zn][Cl].[NH-]CCN1CC1.[NH-]CCN1CC1
inactive: dose: 10.0 mg/kg/injection, schedule: Q01DX009 (ip), vehicle: saline 108 % of control | dose: 20.0 mg/kg/injection, schedule: Q01DX009 (ip), vehicle: saline 111 % of control | dose: 20.0 mg/kg/injection, schedule: Q04DX003 (ip), vehicle: saline 104 % of control | dose: 40.0 mg/kg/injection, schedule: Q01DX009 (ip), vehicle: saline 93 % of control | dose: 40.0 mg/kg/injection, schedule: Q04DX003 (ip), vehicle: saline 102 % of control

CCC(O)Cc1c[nH]c(=O)[nH]c1=O (stereo not given)
inactive: dose: 50.0 mg/kg/injection, schedule: Q01DX009 (ip), vehicle: saline 93 % of control | dose: 100.0 mg/kg/injection, schedule: Q01DX009 (ip), vehicle: saline 98 % of control | [7] 94 % of control | [9] 94 % of control

CN(C)c1nc(N)nc2c1ncn2C1OC(CO)CC1O (stereo not given)
inactive: [12] 120 % of control | [13] 98 % of control | [14] 101 % of control

Cc1cc2nc(CBr)c(CBr)nc2cc1C
inactive: dose: 3.12 mg/kg/injection, schedule: Q01DX009 (ip), vehicle: acetone 100 % of control | dose: 6.25 mg/kg/injection, schedule: Q01DX009 (ip), vehicle: acetone 94 % of control | dose: 6.25 mg/kg/injection, schedule: Q04DX003 (ip), vehicle: Klucel (hydroxypropylcellulose) (HPC) 95 % of control | dose: 12.5 mg/kg/injection, schedule: Q04DX003 (ip), vehicle: Klucel (hydroxypropylcellulose) (HPC) 101 % of control | dose: 12.5 mg/kg/injection, schedule: Q04DX003 (ip), vehicle: saline with Tween-80 98 % of control | dose: 25.0 mg/kg/injection, schedule: Q04DX003 (ip), vehicle: Klucel (hydroxypropylcellulose) (HPC) 93 % of control

O=C(/C=C/c1ccccc1)NC(=S)Nc1ccc(C(=O)O)cc1
inactive: [1] 92 % of control | [2] 101 % of control | [15] 101 % of control | [3] 100 % of control | dose: 400.0 mg/kg/injection, schedule: Q01DX009 (ip), vehicle: Klucel (hydroxypropylcellulose) (HPC) 94 % of control | [4] 108 % of control

COc1cccc(CCCCO)c1
inactive: dose: 50.0 mg/kg/injection, schedule: Q01DX009 (ip), vehicle: saline with Tween-80 91 % of control | [16] 91 % of control

COc1ccc(NC(=O)OC/C=C/c2ccccc2)c(OC)c1
inactive: [1] 90 % of control | [15] 87 % of control

CCCCCCCCCCCCCCCCCCNC(=O)OCC
inactive: dose: 100.0 mg/kg/injection, schedule: Q04DX002 (sc), vehicle: olive oil, sesame oil, peanut oil 103 % of control | dose: 200.0 mg/kg/injection, schedule: Q04DX002 (sc), vehicle: olive oil, sesame oil, peanut oil 113 % of control | dose: 400.0 mg/kg/injection, schedule: Q04DX002 (sc), vehicle: olive oil, sesame oil, peanut oil 106 % of control

O=C(Cc1ccccc1)OCC1CC2C=CC1C2 (stereo not given)
inactive: dose: 222.0 mg/kg/injection, schedule: Q01DX Z (ip), vehicle: methylcellulose (MC) 102 % of control | dose: 333.0 mg/kg/injection, schedule: Q01DX Z (ip), vehicle: methylcellulose (MC) 93 % of control | dose: 500.0 mg/kg/injection, schedule: Q01DX Z (ip), vehicle: methylcellulose (MC) 93 % of control

COc1ccc(OC)c(NC(=O)CI)c1
inactive: dose: 25.0 mg/kg/injection, schedule: Q01DX001 (ip), vehicle: Klucel (hydroxypropylcellulose) (HPC) 103 % of control | dose: 50.0 mg/kg/injection, schedule: Q01DX001 (ip), vehicle: Klucel (hydroxypropylcellulose) (HPC) 104 % of control | dose: 100.0 mg/kg/injection, schedule: Q01DX001 (ip), vehicle: Klucel (hydroxypropylcellulose) (HPC) 98 % of control

CC1(C(Cl)(Cl)Cl)C=CC(=NO)C=C1 (stereo not given)
inactive: [7] 110 % of control | [9] 101 % of control

O=C(O)Cn1[nH]c(=O)ccc1=O
inactive: [6] 103 % of control | [8] 103 % of control | [10] 102 % of control

O=C(O)/C=C\c1cccc([N+](=O)[O-])c1
inactive: [7] 92 % of control | [9] 93 % of control | [11] 92 % of control

CCCC(=O)Nc1cccc(OC(=O)NC)c1
inactive: [7] 90 % of control | [11] 88 % of control

COc1ccc(OC)c(NC(=O)OCCOc2ccccc2)c1
inactive: [16] 104 % of control | dose: 200.0 mg/kg/injection, schedule: Q01DX009 (ip), vehicle: saline with Tween-80 107 % of control | dose: 400.0 mg/kg/injection, schedule: Q01DX009 (ip), vehicle: saline with Tween-80 100 % of control

O=C1OC(/C=C/c2ccccc2)=NC/1=C\C=C\c1ccccc1
inactive: dose: 100.0 mg/kg/injection, schedule: Q04DX002 (ip), vehicle: Klucel (hydroxypropylcellulose) (HPC) 107 % of control | dose: 200.0 mg/kg/injection, schedule: Q04DX002 (ip), vehicle: Klucel (hydroxypropylcellulose) (HPC) 104 % of control | dose: 400.0 mg/kg/injection, schedule: Q04DX002 (ip), vehicle: Klucel (hydroxypropylcellulose) (HPC) 104 % of control

COc1ccccc1NP1(=O)OCC(C)([N+](=O)[O-])CO1 (stereo not given)
inactive: [12] 89 % of control | [13] 104 % of control | [14] 93 % of control

Nc1ccc(-c2ccc(N)cc2I)c(I)c1
inactive: dose: 25.6 mg/kg/injection, schedule: Q04DX002 (ip), vehicle: saline with Tween-80 100 % of control | dose: 64.0 mg/kg/injection, schedule: Q04DX002 (ip), vehicle: saline with Tween-80 95 % of control | dose: 160.0 mg/kg/injection, schedule: Q04DX002 (ip), vehicle: saline with Tween-80 100 % of control | [5] 103 % of control

O=C1OC(=O)C2C1C1(Cl)CC2(Cl)C(Cl)=C1Cl (stereo not given)
inactive: dose: 75.0 mg/kg/injection, schedule: Q01DX009 (ip), vehicle: other 101 % of control | dose: 150.0 mg/kg/injection, schedule: Q01DX009 (ip), vehicle: other 88 % of control
